The source of these data is article PMC8196580, “Identification of Kaurane-Type Diterpenes as Inhibitors of Leishmania Pteridine Reductase I” (Molecules, 2021).

Read-outs that look alike come from different tables or passages of the source.

For experiment [1], the system named is L. major. In words: ChEMBL dataset of pIC50 values against L. major used for the RF model (Table S1). Further: call rule not given here. The experiment is classed as cell-based, Leishmania major.
The subject of experiment [2] is L. major. More on the design: method as in ChEMBL. The conditions noted are these: ref ChEMBL, cited from earlier work.
Setting [3] is: Active/Inactive class assigned to the ChEMBL pIC50 value for Random forest model construction, ref ChEMBL.
[4] abbreviates: ChemBL structures with pIC50 values used for Random forest model construction, L. major.
Setting [5] is: Active/Inactive class assigned to ChemBL structures for Random forest model construction (Table S1).
Where [6] appears, read: ChemBL structures with pIC50 values used for Random forest model construction (Table S1).

In the case of `c1ccc2c(-c3cnc4n3CCS4)c[nH]c2c1` [CHEMBL1255759], the Outcome result with L. major [1] (setting [3]) is given as “Inactive”. For the same molecule, the “pIC50 Value” in the experiment on L. major [2] (setting [4]) is 4.11.

As for `COc1ccccc1C(=O)N/N=C/c1cc(O)c(O)c(O)c1` [CHEMBL2382033], the Outcome entry with L. major [1] (setting [3]) is listed as “Inactive”. In addition, in the experiment on L. major [2] (setting [4]), the “pIC50 Value” is reported as 4.50.

As for `Clc1cc(Cl)cc(-c2c(-c3ccccc3)nc3ccccn23)c1` [CHEMBL2151868], the Outcome entry in the experiment on L. major [1] (setting [3]) was “Active”. Besides, in the experiment with L. major [2] (setting [4]), the “pIC50 Value” is given as 5.11.

As for `COc1ccccc1-c1nnc(-c2ccc(C(=O)N/N=C/c3ccc(O)cc3)cc2)o1` [CHEMBL4085064], the Outcome result in the experiment with L. major [1] (setting [3]) is recorded as “Active”. The “pIC50 Value” in the experiment on L. major [2] (setting [4]) is 5.13.

On to `Cc1ccc2cc(/C=C/C(=O)c3ccc(I)s3)c(Cl)nc2c1` [CHEMBL1940860], for which the Outcome entry in the experiment with L. major [1] (setting [5]) is reported as “Active”. In the experiment on L. major [2] (setting [6]), the “pIC50 Value” is recorded as 5.72.

Take `CCCN1CN(CC(=O)OCc2ccccc2)CSC1=S` [CHEMBL4289905]: the Outcome result in the experiment with L. major [1] (setting [3]) was “Inactive”. Further, the “pIC50 Value” in the experiment with L. major [2] (setting [4]) was 4.03.

Consider `CNc1ccc(Nc2c3ccccc3nc3ccccc23)cc1OC` [CHEMBL92157], for which, in the experiment with L. major [1] (setting [5]), the Outcome result was “Active”. The “pIC50 Value” in the experiment on L. major [2] (setting [6]) was 5.44.

As for `COc1cc(OC)c2c(C)[n+](-c3ccc4cc5ccccc5cc4c3)c(C)cc2c1.F[B-](F)(F)F` [CHEMBL482393], the Outcome entry with L. major [1] (setting [5]) is “Active”. The “pIC50 Value” with L. major [2] (setting [6]) is recorded as 6.17.

On to `Cc1ccc(/C=C/C(=O)C2=Cc3cc(Cl)ccc3OC2)cc1` [CHEMBL1094967], for which, in the experiment on L. major [1] (setting [5]), the Outcome entry was “Active”. The “pIC50 Value” in the experiment on L. major [2] (setting [6]) is on record as 5.56.

For the molecule `C=CCOc1ccc(C(=O)/C=C/c2ccc(OC)cc2OC)cc1` [CHEMBL253672], the Outcome result with L. major [1] (setting [5]) is listed as “Active”. In addition, in the experiment with L. major [2] (setting [6]), the “pIC50 Value” is recorded as 5.40.

Take `COc1cc2c(c(OC)c1-c1c(C)cc3cccc(OC)c3c1O)C(C)=N[C@@H](C)C2` [CHEMBL222436]: the Outcome entry with L. major [1] (setting [3]) is on record as “Inactive”. For the same molecule, the “pIC50 Value” in the experiment on L. major [2] (setting [4]) is on record as 4.00.

Consider `C/C=C/C=C/c1nc2ccccc2n2cccc12` [CHEMBL3260206], for which the Outcome result with L. major [1] (setting [5]) is given as “Active”. The “pIC50 Value” in the experiment with L. major [2] (setting [6]) is reported as 5.33.

As for `COc1ccccc1C(=O)N/N=C/c1cccs1` [CHEMBL2382043], the Outcome entry with L. major [1] (setting [5]) is “Active”. Moreover, the “pIC50 Value” with L. major [2] (setting [6]) is listed as 5.60.

Consider `Cc1ccc2cc(/C=C/C(=O)c3ccc(Br)s3)c(Cl)nc2c1` [CHEMBL1940859], for which the Outcome result in the experiment on L. major [1] (setting [5]) was “Active”. For the same molecule, the “pIC50 Value” with L. major [2] (setting [6]) is given as 5.64.

Turning to `CN1CCN(S(=O)(=O)c2ccc(-c3ccc4c(Nc5ncc(Cl)cn5)ccnc4c3)cc2)CC1` [CHEMBL3637895], in the experiment with L. major [1] (setting [3]), the Outcome result was “Active”. In addition, the “pIC50 Value” in the experiment on L. major [2] (setting [4]) is listed as 5.07.

In the case of `Cc1ccsc1C1=NNC(c2cc3cccc(C)c3nc2Cl)C1` (stereo not shown) [CHEMBL2235718], in the experiment on L. major [1] (setting [5]), the Outcome result is “Active”. In addition, the “pIC50 Value” in the experiment with L. major [2] (setting [6]) is listed as 5.64.

For the molecule `COc1ccc(-c2nc3ccccc3[nH]2)cc1` [CHEMBL379179], in the experiment with L. major [1] (setting [5]), the Outcome result is reported as “Active”. Besides, in the experiment on L. major [2] (setting [6]), the “pIC50 Value” is 5.44.

As to `CCOC(=O)c1ccc(-c2c(-c3ccccc3)nc3cnccn23)cc1` [CHEMBL3634353], the Outcome entry in the experiment with L. major [1] (setting [3]) is “Inactive”. Moreover, in the experiment on L. major [2] (setting [4]), the “pIC50 Value” is 4.76.

For the molecule `Cc1cccc2cc(/C=C/C(=O)c3ccc(Cl)s3)c(Cl)nc12` [CHEMBL1940867], in the experiment on L. major [1] (setting [5]), the Outcome result is “Active”. In addition, the “pIC50 Value” with L. major [2] (setting [6]) is listed as 5.73.

On to `CC[C@H](CO)Nc1nc(NCc2cc(C)ccc2O)c2ncn(C(C)C)c2n1` [CHEMBL3423080], for which the Outcome entry in the experiment on L. major [1] (setting [5]) is listed as “Active”. In addition, the “pIC50 Value” in the experiment on L. major [2] (setting [6]) is recorded as 5.64.

For the molecule `Cc1ccc(-c2nc3ccc([N+](=O)[O-])cc3[nH]2)cc1` [CHEMBL1446966], the Outcome entry in the experiment with L. major [1] (setting [5]) is “Active”. Moreover, the “pIC50 Value” with L. major [2] (setting [6]) is listed as 5.46.

Consider `CN(C)c1nccn2c(I)c(-c3ccc(F)cc3)nc12` [CHEMBL3634361], for which the Outcome entry in the experiment on L. major [1] (setting [3]) is “Inactive”. Also, the “pIC50 Value” with L. major [2] (setting [4]) is listed as 4.00.

With `CCOc1ccc(N2C(=O)C(c3ccccc3)(c3ccccc3)C2c2cn(C)c3ccccc23)cc1` (stereo not shown) [CHEMBL2071562], in the experiment with L. major [1] (setting [5]), the Outcome entry is recorded as “Active”. Besides, the “pIC50 Value” with L. major [2] (setting [6]) is recorded as 5.93.
